Results: US20250129033A1, “METAP2 INHIBITORS AND USES THEREOF” (Yissum Research Development Company of the Hebrew …, priority 2022, published 2025)

Assays:
[1] = molecular target: MetAP2 (Homo sapiens, UniProt P50579); test: MetAp2 enzymatic assay, L-Met-AMC substrate (Experimental Set-Up 1); format: biochemical
Protocol: Quantitative MetAP2 activity assay by N-terminal cleavage of substrate 7-amino-4-methyl-courmarin was performed as follows: The activity of MetAP2 was measured using fluorescent peptide substrate L-Met-AMC (Santa Cruz Biotechnology, Inc, sc-207807) as described by Garrabrant et al. (Angiogenesis 7: 91-96, 2004). Briefly, the reaction (100 μl final) was initiated by adding 0.5 μg of MetAP2 or 5 μg HUVEC homogenate to reaction buffer containing 50 mM HEPES (pH 7.4), 100 mM NaCl, 0.1 mM CoCl2, 1 mg/ml PEG6000, and 250 μM L-Met-AMC substrate. The assay was prepared in black flat-bottomed 96-well microtiter plates and fluorescence was measured every 20 s over a period of 60 min at 25° C. using a microplate fluorometer (Bioteck, SynergyHT), with excitation and emission wavelengths set at 360 and 440 nm respectively. As a control the inhibition of the enzyme was obtained by incubating it with TNP-470 for 15 min before the addition of the substrate.
The inhibitory effect of the compounds were tested in MetAp2 enzymatic assay.

[2] = ERG study in mice; format: in vivo; conditions: Low dose 12 μg per eye and High dose 48 μg per eye
[3] = system: HUVECs; test: HUVEC proliferation assay (MTT); format: cell-based, human; conditions: for reduction in HUVECs proliferation: 72 h, MTT
Protocol: Human Umbilical Vein Endothelial Cells (HUVECs) or human melanoma cell line (A375) were used to validate the ability of the compound to suppress endothelial cell proliferation. Each 1500 A375 cells/well or 2000 HUVEC cells/well were seeded in a 96 wells plate and allowed to adhere to the plate for few hours. Compounds were then added to the cells at concentration range of 0.05-10 μM (<0.1% DMSO). Cells were then incubated for additional 72 hours and MTT was done (2 to 3 h at 37° C.). The dye was solubilized with DMSO and the absorbance was determined at 570 nm.
(§1) A375 were seeded (2000 cells/well) exposed to TNP-470 and to arrange concentrations of AD-3281 (1-100 μM) cells were incubated for 72 h at 37° C., After incubation, MTT (Sigma Aldrich, St. Louis City, MO, USA) was added (0.5 mg/mL) into each well for viability detection and incubated at 37° C. and 5% CO2 for 40 minutes. The absorbance was measured at 540 nm using a plate reader (Wallac 1420 VICTOR plate reader, Perkin-Elmer Life Sciences, USA). The proliferation of HUVECs was measured under the same conditions. HUVECs were seeded (3000 cells/well) in 96-well plates
To further verify the inhibition activity of encapsulated AD-3281 in PLGA nanoparticles HUVECS and A375 were exposed to different concentrations of nanoparticles equivalent to 50-1000 nM free AD-3281 (0.2-4.16 mg/ml nanoparticles) empty nanoparticles were added as a control. The effect of AD-3281 on HUVECs growth was evaluated after 5 days.
as §1, with “after” for “After”, “plates. […]” for “plates”

Chain of MetAP2 (P50579 whole entry): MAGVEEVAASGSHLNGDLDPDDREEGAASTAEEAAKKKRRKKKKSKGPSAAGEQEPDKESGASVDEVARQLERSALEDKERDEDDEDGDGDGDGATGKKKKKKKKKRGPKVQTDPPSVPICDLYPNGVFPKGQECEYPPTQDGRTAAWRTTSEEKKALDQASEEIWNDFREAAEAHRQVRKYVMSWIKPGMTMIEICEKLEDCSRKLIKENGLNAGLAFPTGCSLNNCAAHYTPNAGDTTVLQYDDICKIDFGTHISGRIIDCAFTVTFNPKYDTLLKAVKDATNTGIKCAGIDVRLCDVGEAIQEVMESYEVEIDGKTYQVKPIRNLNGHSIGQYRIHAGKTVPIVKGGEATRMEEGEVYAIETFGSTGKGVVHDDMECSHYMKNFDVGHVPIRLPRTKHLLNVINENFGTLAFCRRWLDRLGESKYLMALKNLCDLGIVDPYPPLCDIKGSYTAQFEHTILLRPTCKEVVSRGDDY

inhibitory effect in MetAp2 enzymatic assay (ranking among compounds) [1]: most active
Structure (SMILES): COC1C(OC(=O)CC23CC4CC(CC(C4)C2)C3)CCC2(CO2)C1C1(C)OC1CC=C(C)C (centres unmarked) [AD-3281, Fumagillol-1-adamantylacetate]
damage to vision (ERG) [2]: no damage to vision
suppression of endothelial cell proliferation (ranking among compounds) [3]: most active
reduction in HUVECs proliferation ([3]; 1 μM): 40%
reduction in HUVECs proliferation ([3]; 10 μM): 50%
